Reference: PMC9824695 (Molecules, 2023)
Entries after “also recorded” stand apart in the source; their conditions may differ. Like-named read-outs stand apart in the source and are kept apart here.

Assays:
[1] = target: human mu opioid receptor (CHOhMOP) (Homo sapiens, UniProt P35372); assay: cell-based
male Kunming mice [2] = assay: Conditioned place preference; type: in vivo, mouse (Kunming); conditions: 10 mg/kg s.c.
Description: The conditioned place preference experiment is a classical model for evaluating dependence. The device consisted of three compartments. Two large compartments (20 × 20 × 20 cm) were connected by a narrower compartment (5 × 20 × 20 cm). The large compartments were visually and tactually distinct (white walls with rough floors and black walls with smooth floors). Before the unbiased experiment, the mice were allowed to move freely for 15 min to accommodate the apparatus. On the first day, the time the mice spent in each compartment was documented within 15 min. Over the next 3 days, the mice were subcutaneously administered drugs and were limited to one of the two large compartments. Approximately 6 h later, the mice were subcutaneously injected with saline and confined to the opposite compartment. On the fifth day, the mice moved freely for 15 min, and the time spent in the drug-associated preference compartment was recorded. The conditioned place preference score was calculated as: score = time spent in the drug-associated preference compartment on the fifth day − time spent in the same compartment on the first day.

male Kunming mice [3] = assay: Gastrointestinal transit test (charcoal meal); type: in vivo, mouse (Kunming); conditions: 10 mg/kg s.c.; for GIT%: 15 min before charcoal meal, 30 min, p < 0.05, lower = stronger inhibition
Description: The mice were fasted for 16 h with free access to water. Drugs were subcutaneously injected 15 min before the oral administration of a charcoal meal (an aqueous suspension of 5% charcoal and 10% gum arable). Thirty minutes after the oral administration, the animals were sacrificed. The farthest traveled distance by the charcoal meal (L1) and total length of the small intestine (L2) were measured. The GIT inhibition by analgesics was represented by GIT% = (L1/L2) × 100.

male Kunming mice [4] = assay: Rotarod test; type: in vivo, mouse (Kunming); conditions: 10 mg/kg s.c.; compared with saline
[5] = Blood-brain barrier penetration; conditions: inferred from naloxone methiodide s.c. vs i.c.v. antagonism in mice
[6] = 15% mouse brain homogenate; cited from earlier work
human sperm = assay: Human sperm motility in vitro; conditions: 0.0001, 0.001, 0.01, 0.1, 1, or 10 µM, 4-h incubation, 37 °C, n = 5
male Kunming mice [7] = assay: Acute hyperlocomotion test (open field); conditions: 10 mg/kg s.c.; 150 min
[8] = target: human delta opioid receptor (CHOhDOP) (Homo sapiens, UniProt P41143); assay: Calcium mobilization assay, CHOhDOP cells
male Kunming mice [9] = assay: Antinociceptive tolerance (tail-flick, 8 days); conditions: 10 mg/kg s.c. once a day
male Kunming mice [10] = assay: Naloxone-induced withdrawal response (jumping); conditions: 10 mg/kg s.c.; method: 20, 40, 60, 80, 100, 100, 100 mg/kg every 8 h, naloxone 10 mg/kg
male Kunming mice [11] = assay: Radiant heat tail-flick test; type: in vivo, mouse (Kunming); conditions: for ED50: Mus musculus, sc
Excerpt: The radiant heat tail-flick test has been widely used as an acute pain model to examine the effects of analgesics. The mice were gently stabilized by hand, and the dorsal surface of the tail, 3 cm from the distal end, was placed on a radiant heat source. The cutoff time was set to 10 s to avoid tissue damage. Radiant heat intensity was adapted to engender a basal latency within 3–5 s in naive mice. Tail-flick latency was defined as the time when the mouse flicked its tail away from the radiant heat source. The data of antinociceptive effects for each animal after treatment were calculated as a percentage of the maximal possible effect (MPE%): MPE (%) = 100 × [(postdrug response − baseline response)/(cutoff response − baseline response)]. The MPE% from each animal was converted to an area under the curve (AUC).
Statistical significance was set at p < 0.05.

male Kunming mice [12] = assay: Carrageenan-induced inflammatory pain; type: in vivo, mouse (Kunming); conditions: s.c.
male Kunming mice [13] = assay: Acetic acid-induced writhing test; type: in vivo, mouse (Kunming); conditions: 0.6% acetic acid i.p.
Description: An acetic acid-induced writhing test was performed to investigate visceral pain [43]. The increase in intensity of drug analgesia would be accompanied by a decrease in the writhing number. The mice were acclimatized in a transparent acrylic chamber (20 × 20 × 30 cm) for 15–20 min. First, the mice were subcutaneously injected with drugs. Five minutes later, they were intraperitoneally injected with 0.6% acetic acid solution. Within 5–15 min after injecting acetic acid, the number of writhes was recorded. Writhe was defined as a contraction of the abdominal muscles and stretching of the hind limbs.

male Kunming mice [14] = assay: Formalin test; type: in vivo, mouse (Kunming); conditions: phase I 0–5 min
Description: The formalin test was conducted to explore a characteristic biphasic pain response. The better the analgesic effect in mice, the shorter the average licking/biting/shaking paw time. The mice were acclimated in a transparent plexiglass chamber (20 × 20 × 30 cm) for 15–20 min. First, the mice received a subcutaneous injection of drugs. Five minutes later, 20 μL of 5% formalin was administered by intraplantar injection to the right hind paw. The mice were immediately placed back in the chamber. Simultaneously, the time spent licking, biting, and shaking the injected paw was recorded within 0–5 and 15–30 min.

MOR = conditions: cited from earlier work
DOR = conditions: cited from earlier work
KOR = conditions: cited from earlier work
Excerpt: Table 2 The actions of agonists and antagonists at opioid receptors. | column: Ki^(KOR) (nM)

opioid receptors = conditions: cited from earlier work
[15] = cited from earlier work
mice = tested on: mice; design: method as in 2 sources, ref 9 = [9]; PMID 9087409; doi:10.1038/386499a0; 9. Zadina J.E. Hackler L. Ge L.-J. Kastin A.J.J.N. A potent and selective endogenous agonist for the µ-opiate receptor Nature 1997 386 499 502 10.1038/386499a0 9087409 ||| ref 16 = [16]; PMID 31444977; doi:10.1111/bph.14848; 16. Xu B. Zhang M. Shi X. Zhang R. Chen D. Chen Y. Wang Z. Qiu Y. Zhang T. Xu K. The multifunctional peptide DN-9 produced peripherally acting antinociception in inflammatory and neuropathic pain via; conditions: cited from earlier work

Sequence of human mu opioid receptor (CHOhMOP) (P35372 whole entry): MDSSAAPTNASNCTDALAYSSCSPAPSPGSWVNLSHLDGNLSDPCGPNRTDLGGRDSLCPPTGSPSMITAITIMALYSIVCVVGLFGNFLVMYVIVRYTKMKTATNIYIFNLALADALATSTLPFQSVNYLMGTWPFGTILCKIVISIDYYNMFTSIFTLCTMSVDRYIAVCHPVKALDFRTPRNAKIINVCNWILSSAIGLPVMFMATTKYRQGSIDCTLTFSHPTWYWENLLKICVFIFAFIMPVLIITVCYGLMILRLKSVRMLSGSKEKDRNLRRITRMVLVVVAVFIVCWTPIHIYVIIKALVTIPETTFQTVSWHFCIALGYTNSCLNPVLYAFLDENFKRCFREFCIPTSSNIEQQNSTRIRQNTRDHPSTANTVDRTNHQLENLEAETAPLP
Sequence of human delta opioid receptor (CHOhDOP) (P41143 whole entry): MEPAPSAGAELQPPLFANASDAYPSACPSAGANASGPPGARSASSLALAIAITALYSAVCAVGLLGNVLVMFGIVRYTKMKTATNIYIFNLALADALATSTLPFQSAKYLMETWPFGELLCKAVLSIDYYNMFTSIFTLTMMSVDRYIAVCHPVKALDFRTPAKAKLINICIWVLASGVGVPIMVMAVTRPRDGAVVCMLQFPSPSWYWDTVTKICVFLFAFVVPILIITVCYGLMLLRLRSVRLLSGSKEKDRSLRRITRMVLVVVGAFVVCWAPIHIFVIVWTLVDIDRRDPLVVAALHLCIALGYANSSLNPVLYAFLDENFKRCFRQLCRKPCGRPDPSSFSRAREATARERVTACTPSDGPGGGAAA

## C[C@@H](NC(=O)[C@@H](N)Cc1ccc(O)cc1)C(=O)NCC(=O)N[C@@H](Cc1ccccc1)C(N)=O [HAGD, H-Tyr-D-AIa-GIy-Phe-NH2]
[1]
  Emax: 103 ± 1.58%
[1]; CHOhMOP, duplicate, repeated at least three times
  EC50: 81.7 nM
Male Kunming mice [2]
  conditioned place preference (in words): did not induce a place preference change; also recorded: substantial difference in the conditioned place preference scores between the HAGD and morphine groups
Male Kunming mice [3]
  gastrointestinal transit (in words): significant delay compared with saline
  GIT%: 44.83 ± 4.14%
Male Kunming mice [4]
  endurance time on rotating rod (in words): no significant difference in the endurance time
[5]
  BBB permeability: poor BBB permeability; also recorded: poor ability of HAGD to penetrate the BBB into the CNS
[6]
  half-life in brain homogenate: 4.3288 ± 0.6835 h
Human sperm
  sperm progressive motility (PR), HAGD (in words): did not produce significant changes in sperm PR; also recorded: did not have a significant negative effect on human sperm motility
Male Kunming mice [7]
  locomotor activity (in words): did not show an apparent effect on locomotion compared with saline
[8]
  EC50: 2630 nM
[8]; read-out: Emax ± S.E.M.
  Emax: 110 ± 7.21%
Male Kunming mice [9]
  antinociceptive tolerance: non-tolerance antinociception for 8 consecutive days; also recorded: non-tolerance antinociception for eight consecutive days
Male Kunming mice [10]
  withdrawal response: significant withdrawal response; also recorded: significant physical dependence

## CN1CC[C@]23c4c5ccc(O)c4O[C@H]2[C@@H](O)C=C[C@H]3[C@H]1C5 [morphine]
Male Kunming mice [11]; mice, equivalent of the mg/kg value, read-out: antinociceptive ED50 (molar equivalent)
  ED50: 16.3 µmol/kg
Male Kunming mice [11]; read-out: antinociceptive ED50
  ED50: 5.24 mg/kg
Male Kunming mice [11]; s.c., mice
  time of peak tail-flick latency: 30 min
Male Kunming mice [12]; carrageenan-treated mice
  duration of anti-allodynic activity: 60 min
Male Kunming mice [12]; post-injection
  time of peak anti-allodynic effect: 30 min
Male Kunming mice [13]; 1 mg/kg s.c., 5–15 min, mean ± S.E.M., saline 34 ± 2.49
  average writhing number: 4.60 ± 2.43
Male Kunming mice [13]; s.c.
  inhibition of writhing response (in words): inhibited the writhing response
Male Kunming mice [14]; 10 mg/kg s.c., 5% formalin intraplantar, mean ± S.E.M., p < 0.05, lower = better
  formalin test phase I response: 67.36 ± 3.93
Male Kunming mice [14]; s.c., morphine 10 mg/kg, phase II 15–30 min
  formalin-induced nociceptive responses, phases I and II (in words): attenuated nociceptive responses in both phases I and II
Male Kunming mice [2]
  conditioned place preference (in words): significant place preference change
Male Kunming mice [2]; mean ± S.E.M.
  conditioned place preference score: 140.50 ± 43.96
Male Kunming mice [3]
  gastrointestinal transit (in words): significantly weakened the GIT and exhibited a greater inhibitory effect than HAGD
  GIT%: 24.11 ± 3.79%
Male Kunming mice [7]
  locomotor activity (in words): enhanced the locomotor activity of mice and significantly increased the total distance traveled compared with saline or HAGD
Male Kunming mice [9]
  antinociceptive tolerance: decreased significantly from days 5 to 8; also recorded: produced antinociceptive tolerance in the tail-flick test
Male Kunming mice [10]
  withdrawal response: significant withdrawal response; also recorded: significant physical dependence

## C=CC[N+]1(C)CC[C@]23c4c5ccc(O)c4O[C@H]2C(=O)CC[C@@]3(O)[C@H]1C5 (stereo partly shown) [naloxone methiodide]
MOR
  Ki: 28.9 nM
DOR
  Ki: 1010 nM
KOR
  Ki: 204 nM
Opioid receptors
  Antagonist (receptors): MOR DOR KOR
[15]; opioid receptor antagonist
  peripheral restriction: peripherally restricted

## Oc1ccc2c3c1O[C@H]1c4[nH]c5ccccc5c4C[C@@]4(O)[C@@H](C2)N(CC2CC2)CC[C@]314 [naltrindole]
DOR
  Ki: 0.02 nM
Opioid receptors
  Antagonist (receptors): DOR

## Oc1ccc2c3c1O[C@H]1c4[nH]c5c(c4C[C@@]4(O)[C@@H](C2)N(CC2CC2)CC[C@]314)C[C@@]1(O)[C@H]2Cc3ccc(O)c4c3[C@@]1(CCN2CC1CC1)[C@H]5O4 [nor-binaltorphimine]
Opioid receptors
  Antagonist (receptors): KOR

## COC(=O)/C=C/C(=O)N[C@@H]1CC[C@@]2(O)[C@H]3Cc4ccc(O)c5c4[C@@]2(CCN3CC2CC2)[C@H]1O5 [β-funaltrexamine]
MOR; binds covalently to MOR
  Ki: 0.3 nM
Opioid receptors
  Antagonist (receptors): The inhibition constant (Ki) represented the agonist or antagonist affinity. ^a Drug dosage was in mg/kg (or µmol/kg) for each animal (subcutaneously). ^b β-funaltrexamine binds covalently to MOR. MOR, mu opioid receptor; DOR, delta opioid receptor; KOR, kappa opioid receptor. nM, nmol/L; also recorded: MOR ^b

## Tyr1-Pro2-Phe3-Phe4-NH2 [endomorphin-2]
MOR
  selectivity for MOR: highly selective for MORs
mice
  antinociception compared with morphine: more potent and prolonged antinociception than morphine in mice

## Tyr1-Pro2-Trp3-Phe4-NH2 [endomorphin-1]
MOR
  selectivity for MOR: highly selective for MORs
[6]
  half-life in brain homogenate: 0.3923 ± 0.00417 h
mice
  antinociception compared with morphine: more potent and prolonged antinociception than morphine in mice
[15]; into the CNS as an analgesic
  BBB crossing: inability of endomorphin-1 to cross the blood–brain barrier (BBB)
